Values of other authors in PMC7941644, “Identification and Development of Therapeutics for COVID-19” (ArXiv, 2021).

Test system: SARS-CoV-2

CCC(CC)COC(=O)[C@H](C)N[P@](=O)(OC[C@H]1O[C@@](C#N)(c2ccc3c(N)ncnn23)[C@H](O)[C@@H]1O)Oc1ccccc1 [remdesivir]
inhibition of SARS-CoV-2 in vitro: inhibit SARS-CoV-2, showing synergy with CQ in vitro
